Reference: patent publication US8927535B2, “Cyclopropyl-fused-1,3-thiazepines as BACE1 and/or BACE2 inhibitors” (Hoffman-La Roche Inc., priority 2011, dated 2015)

Target: T1, BACE2 (Rattus norvegicus, UniProt Q6IE75)
T1 construct: endogenous cellular BACE2 in the Ins1e rat cell line; endogenous in cells; host or cells: INS-TMEM27 (INS1e-derived rat cell line with doxycycline-inducible full-length hTMEM27)
T1 sequence (Q6IE75 63-514): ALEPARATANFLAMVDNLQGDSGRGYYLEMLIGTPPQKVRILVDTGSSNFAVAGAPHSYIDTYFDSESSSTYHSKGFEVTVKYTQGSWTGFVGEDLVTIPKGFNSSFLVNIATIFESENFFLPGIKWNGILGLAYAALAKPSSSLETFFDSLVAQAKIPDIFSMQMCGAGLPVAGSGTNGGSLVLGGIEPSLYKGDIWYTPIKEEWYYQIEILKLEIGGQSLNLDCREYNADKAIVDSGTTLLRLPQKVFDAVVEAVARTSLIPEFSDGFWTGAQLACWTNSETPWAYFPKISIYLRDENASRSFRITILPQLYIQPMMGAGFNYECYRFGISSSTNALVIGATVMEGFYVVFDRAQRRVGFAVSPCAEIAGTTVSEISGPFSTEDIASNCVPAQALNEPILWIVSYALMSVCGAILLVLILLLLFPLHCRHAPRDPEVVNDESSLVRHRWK
Assay: Assay for BACE inhibition by measuring cellular TMEM27 cleavage
Format: cell-based
Conditions: INS-TMEM27 (INS1e-derived) cells, endogenous BACE2, shed human TMEM27 in medium by ELISA
Text: Assay for BACE Inhibition by Measuring Cellular TMEM27 Cleavage:
The assay uses the principle of inhibition of human TMEM27 cleavage by endogenous cellular BACE2 in the Ins1e rat cell line and shedding from the cell surface into the culture medium, followed by detection in an ELISA assay. Inhibition of BACE2 prevents the cleavage and shedding in a dose-dependent manner.
The stable cell line “INS-TMEM27” represents an INS1e-derived cell line with inducible expression (using the TetOn system) of full-length hTMEM27 in a doxycycline-dependent manner.
INS-TMEM27 cells are seeded in 96-well plates. After 2 days in culture, BACE2 inhibitor is added in a range of concentrations as required by the assay and after a further two hours, doxycycline is added to a final concentration of 500 ng/ml. The cells are incubated for a further 46 hours and the supernatant harvested for detection of shed TMEM27.
An ELISA assay (using a pair of mouse anti-human-TMEM27 antibodies, raised against the extracellular domain of TMEM27) is used for detection of TMEM27 in the culture medium. An EC50 for BACE2 inhibition is calculated using the ELISA readout for each inhibitor concentration with standard curve-fitting software such as XLFit for the Excel spreadsheet program.

IC50: 690 nM
SMILES: NC1=N[C@@]2(c3cc(NC(=O)c4ccc(Cl)cn4)ccc3Cl)C[C@H]2CCS1 (racemic) [Example 4, N-(3-((1SR,7SR)-3-amino-4-thia-2-azabicyclo[5.1.0]oct-2-en-1-yl)-4-chlorophenyl)-5-chloropicolinamide]
